Key:
SpCas9:gRNA complex = molecular target: T1, SpCas9:gRNA complex (Streptococcus pyogenes serotype M1, UniProt Q99ZW2); assay: Compound-Cas9 interaction in Bio-Layer Interferometry (BLI); type: binding; conditions: excess (10×) of biotin to BRD7087 loading
T1 construct: His6 (N, cleaved yes); made in house; host or cells: E. coli BL21 Star (DE3)
Experimental: Compound-Cas9 interaction in BLI. The experiments were performed in a 96-well format with 180 μL reaction volume using biotinylated compound BRD7087-Biotin and streptavidin sensors. 1 μM of the biotinylated compound was loaded onto the sensors for 180s in 20 mM Tris buffer of pH 7.4, 100 mM KCl, 5 mM MgCl2, 1 mM DTT, 0.01% Tween. The compound loaded sensors were then allowed to associate with the different concentration of SpCas9:gRNA complex (1-0.15 μM) for 300s followed by dissociation in the reaction buffer. Reference sensor was loaded with compound and allowed to associate and dissociate in the reaction buffer alone. The response curves were fitted with a 2:1 stoichiometric model and a global fit steady-state analysis were performed using manufacturer inbuilt protocol. The experiment was performed in three replicates.
The competitive experiments were performed using Biotin-linker fragment. In this experiment, streptavidin sensors were pre-incubated with 10 μM of Biotin-linker before dipping into a solution of either 1 μM BRD7087-Biotin or reaction buffer alone. Sensors were then allowed to associate with different concentration of SpCas9:gRNA complex or buffer alone.
Compound-Cas9 interaction in BLL The experiments were performed in a 96-well format with 180 μL reaction volume using biotinylated compound BRD7087-Biotin and streptavidin sensors. […]

SpCas9 = SpCas9 (Streptococcus pyogenes serotype M1, UniProt Q99ZW2); assay: Cas9 nuclease activity in EGFP disruption assay in U2OS.eGFP.PEST cells; type: cell-based; design: host or cells: U2OS.eGFP-PEST; conditions: 10, 15, 20 μM, 24 h
Chain of SpCas9 (Q99ZW2 whole entry): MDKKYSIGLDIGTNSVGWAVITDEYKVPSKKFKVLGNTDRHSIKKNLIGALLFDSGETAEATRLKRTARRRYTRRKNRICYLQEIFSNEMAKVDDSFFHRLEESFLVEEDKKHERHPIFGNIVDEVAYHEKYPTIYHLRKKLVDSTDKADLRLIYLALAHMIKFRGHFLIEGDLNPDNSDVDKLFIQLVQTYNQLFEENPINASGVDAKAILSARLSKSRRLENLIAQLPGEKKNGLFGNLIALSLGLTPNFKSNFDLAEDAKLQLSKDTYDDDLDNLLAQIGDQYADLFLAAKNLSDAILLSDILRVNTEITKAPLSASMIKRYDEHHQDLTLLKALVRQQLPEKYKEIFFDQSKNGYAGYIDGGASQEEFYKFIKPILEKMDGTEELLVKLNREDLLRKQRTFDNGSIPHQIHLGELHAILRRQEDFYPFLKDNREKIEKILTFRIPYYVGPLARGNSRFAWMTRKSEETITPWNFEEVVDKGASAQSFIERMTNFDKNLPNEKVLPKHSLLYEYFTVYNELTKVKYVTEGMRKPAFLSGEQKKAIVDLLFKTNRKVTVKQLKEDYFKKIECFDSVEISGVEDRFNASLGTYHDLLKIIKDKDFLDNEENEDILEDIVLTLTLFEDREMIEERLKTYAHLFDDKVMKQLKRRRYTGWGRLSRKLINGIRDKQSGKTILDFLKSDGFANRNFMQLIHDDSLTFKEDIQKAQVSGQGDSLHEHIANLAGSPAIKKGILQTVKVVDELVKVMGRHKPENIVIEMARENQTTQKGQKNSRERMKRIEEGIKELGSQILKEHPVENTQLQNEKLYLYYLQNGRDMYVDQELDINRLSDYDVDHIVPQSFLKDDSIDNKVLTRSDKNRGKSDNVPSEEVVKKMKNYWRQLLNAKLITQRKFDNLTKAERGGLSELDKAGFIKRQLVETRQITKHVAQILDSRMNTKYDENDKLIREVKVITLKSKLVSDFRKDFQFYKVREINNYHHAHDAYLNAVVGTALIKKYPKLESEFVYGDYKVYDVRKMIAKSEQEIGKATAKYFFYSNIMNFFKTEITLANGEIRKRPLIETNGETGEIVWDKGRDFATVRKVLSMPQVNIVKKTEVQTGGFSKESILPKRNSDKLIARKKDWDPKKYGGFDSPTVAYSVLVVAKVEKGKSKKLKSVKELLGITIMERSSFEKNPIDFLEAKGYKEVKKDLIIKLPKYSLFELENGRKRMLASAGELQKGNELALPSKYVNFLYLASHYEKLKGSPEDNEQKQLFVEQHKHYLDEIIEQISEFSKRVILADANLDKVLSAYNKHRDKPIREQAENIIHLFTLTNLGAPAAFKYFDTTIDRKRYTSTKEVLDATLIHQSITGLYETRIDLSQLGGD
Experimental: Cas9 Nuclease activity in EGFP disruption assay. Approximately 200,000 U2OS.eGFP-PEST cells were nucleofected with 400 ng of SpCas9 (Addgene Plasmid #43861) and 40 ng of sgRNA (pFYF1320 EGFP Site #1, Addgene Plasmid #47511) expressing plasmids along with a Td-tomato-encoding plasmid using the SE Cell Line 4D-Nucleofector™ X Kit (Lonza™) according to the manufacturer's protocol. Approximately 20,000 transfected cells/well in 3 replicates were plated in a 96-well plate (Corning® 3904). Cells were allowed to grow in the indicated amount of compound or DMSO for 24 h post transfection. Cells were then fixed using 4% paraformaldehyde and imaged with the HCS NuclearMask™ Blue Stain (Life Technologies™) as the nuclear counter-staining agent. Imaging was performed with an IXM 137204 ImageXpress® Automated High Content Microscope (Molecular Devices™) at 10× magnification under three excitation channels (blue, green and red) with 9 acquiring sites per well. Images were analyzed in the MetaXpress® software and data were plotted using GraphPad Prism 6. The Z′-value was calculated following the formula: […]
Cas9 Nuclease activity in EGFP disruption assay. In some embodiments, a quantitative human cell-based reporter assay that enables rapid quantitation of targeted nuclease activities is used to characterize off-target cleavage of CRISPR protein-based RNA guided endonucleases. In this assay, the activities of nucleases targeted to a single integrated EGFP reporter gene can be quantified by assessing loss of fluorescence signal in human U2OS.EGFP cells caused by inactivating frameshift insertion/deletion (indel) mutations introduced by error prone non-homologous end-joining (NHEJ) repair of nuclease-induced double-stranded breaks (DSBs).
Approximately 200,000 U2OS.eGFP-PEST cells were nucleofected with 400 ng of SpCas9 (Addgene Plasmid #43861) and 40 ng of sgRNA (pFYF1320 EGFP Site #1, Addgene Plasmid #47511) expressing plasmids along with a Td-tomato-encoding plasmid using the SE Cell Line 4D-Nucleofector™ X Kit (Lonza™) according to the manufacturer's protocol. […]

T1 sequence (Q99ZW2 whole entry, one chain of several): as the sequence (Q99ZW2 whole entry) above

## O=C(CCCC[C@@H]1SC[C@@H]2NC(=O)N[C@@H]21)NCCOCCOCCOCCC(=O)Nc1cccc(-c2ccc3c(c2)[C@H]2[C@H](CCN2Cc2ccncc2)[C@@H](CO)N3)c1 [biotin-conjugate of BRD7087, N-(2-(2-(2-(3-((3-((3aR,4S,9bR)-4-(Hydroxymethyl)-1-(pyridin-4-ylmethyl)-2,3,3a,4,5,9b-hexahydro-1H-pyrrolo[3,2-c]quinolin-8-yl)phenyl)amino)-3-oxopropoxy)ethoxy)ethoxy)ethyl)-5-((3aS,4S,6aR)-2-oxohexahydro-1H-thieno[3,4-d]imidazol-4-yl)pentanamide]
SpCas9:gRNA complex
  BLI response signal in competitive experiment: no substantial response signal

## OC[C@@H]1Nc2ccc(-c3cccc(F)c3)cc2[C@@H]2[C@H]1CCN2Cc1ccncc1 [BRD5039, ((3aS,4R,9bS)-8-(3-Fluorophenyl)-1-(pyridin-4-ylmethyl)-2,3,3a,4,5,9b-hexahydro-1H-pyrrolo[3,2-c]quinolin-4-yl)methanol]
SpCas9
  potency of stereoisomers in EGFP-disruption assay relative to BRD7087 / BRD5779: equipotent as BRD7087

## OC[C@H]1Nc2ccc(-c3cccc(F)c3)cc2[C@@H]2[C@H]1CCN2Cc1ccncc1 [BRD0750, ((3aS,4S,9bS)-8-(3-Fluorophenyl)-1-(pyridin-4-ylmethyl)-2,3,3a,4,5,9b-hexahydro-1H-pyrrolo[3,2-c]quinolin-4-yl)methanol]
SpCas9
  potency of stereoisomers in EGFP-disruption assay relative to BRD7087 / BRD5779: less potent

## OC[C@@H]1Nc2ccc(-c3cccc(F)c3)cc2[C@H]2[C@@H]1CCN2Cc1ccncc1 [BRD2161, ((3aR,4R,9bR)-8-(3-Fluorophenyl)-1-(pyridin-4-ylmethyl)-2,3,3a,4,5,9b-hexahydro-1H-pyrrolo[3,2-c]quinolin-4-yl)methanol]
SpCas9
  potency of stereoisomers in EGFP-disruption assay relative to BRD7087 / BRD5779: less potent

Reference: patent publication US11965159B2, “Compositions and methods for regulating proteins and nucleic acids activities” (THE BROAD INSTITUTE, INC., priority 2019, dated 2024)
